The target in the assay is T1, Kinesin-like protein KIF18A (Homo sapiens, UniProt Q8NI77).
T1 sequence (Q8NI77 whole entry): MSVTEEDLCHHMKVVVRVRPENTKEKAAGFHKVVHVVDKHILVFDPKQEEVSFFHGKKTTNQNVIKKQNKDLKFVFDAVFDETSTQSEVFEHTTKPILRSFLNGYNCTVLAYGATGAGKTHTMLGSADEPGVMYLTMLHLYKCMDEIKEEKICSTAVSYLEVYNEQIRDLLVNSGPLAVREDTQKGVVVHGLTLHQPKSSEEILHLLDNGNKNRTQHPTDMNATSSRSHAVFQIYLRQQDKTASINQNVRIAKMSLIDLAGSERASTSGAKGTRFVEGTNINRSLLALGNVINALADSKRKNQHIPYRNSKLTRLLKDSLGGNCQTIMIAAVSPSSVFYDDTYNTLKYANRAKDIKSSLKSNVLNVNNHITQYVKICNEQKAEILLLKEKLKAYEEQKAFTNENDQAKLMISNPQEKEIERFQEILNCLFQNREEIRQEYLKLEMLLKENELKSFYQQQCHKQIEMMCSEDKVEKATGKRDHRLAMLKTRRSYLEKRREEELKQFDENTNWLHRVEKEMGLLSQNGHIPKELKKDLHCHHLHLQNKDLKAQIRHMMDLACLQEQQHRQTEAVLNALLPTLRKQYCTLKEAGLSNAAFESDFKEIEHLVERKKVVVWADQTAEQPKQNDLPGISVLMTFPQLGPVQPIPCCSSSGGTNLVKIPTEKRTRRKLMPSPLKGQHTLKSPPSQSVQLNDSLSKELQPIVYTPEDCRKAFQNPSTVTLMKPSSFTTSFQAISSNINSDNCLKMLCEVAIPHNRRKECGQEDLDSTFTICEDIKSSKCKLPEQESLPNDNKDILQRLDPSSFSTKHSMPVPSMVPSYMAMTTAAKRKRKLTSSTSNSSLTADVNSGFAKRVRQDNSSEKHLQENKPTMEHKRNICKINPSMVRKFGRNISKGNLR
Nature of the assay: Inhibition of recombinant His-tagged human KIF18A (1 to 467 residues) expressed in baculovirus expression system assessed as inhibition of microtubule-stimulated ATPase activity preincubated for 15 mins followed by ATP addition and further incubated for 15 mins and measured after 40 mins by ADP-Glo reagent based assay.

SMILES strings stand for the structures.

For `Cc1cc(NC(=O)c2ccc(NS(=O)(=O)C[C@H](C)O)cc2N2CCC3(CC2)CC3)nc(N2CCO[C@H](C)C2)n1`, the half-inhibitory concentration (IC50) is 151 nM.

Take `Cc1cc(NC(=O)c2ccc(S(=O)(=O)[C@@H](C)CO)cc2N2CCC3(CC2)CC3)nc(N2CCC(F)(F)CC2)n1`: the IC50 turned out to be 57 nM. The result for `Cc1cc(NC(=O)c2ccc(S(=O)(=O)[C@H](C)CO)cc2N2CCC3(CC2)CC3)nc(N2CCC(F)(F)CC2)n1` reads 64 nM; that for `Cc1cc(NC(=O)c2ccc(S(C)(=O)=O)cc2N2CCC3(CC2)CC3)nc(NC(C)(C)CO)n1`, 186 nM.

One may read the IC50 as the point on the concentration scale where inhibition reaches its midpoint.

Source of the values: ChEMBL document CHEMBL5052826, “Kif18a inhibitors” (2020).
